Assays:
Assay type in all cases: in vivo
Cocklebur [1] = test: Pre-emergence herbicide test; conditions: Xanthium strumarium, read-out: % plant inhibition (Cobu); for inhibition at 1120 g/ha: 1.12 kg/ha
Method: (§1) The tests for pre-emergence herbicide activity are conducted as follows:
(§2) Topsoil is placed in an aluminum pan and compacted to a depth of 0.95 to 1.27 cm from the top of the pan. On the top of the soil is placed a predetermined number of seeds of each of several monocotyledonous and dicotyledonous annual plant species and/or vegetative propagules of various perennial plant species. A known amount of the active ingredient dissolved or suspended in an organic solvent, e.g., acetone, or water as carrier is then applied directly to the seed bed, which is then covered with a layer of untreated topsoil to level fill the pan. After treatment, the pans are moved to a greenhouse bench where they are watered from below as needed to give adequate moisture for germination and growth.
(§3) Approximately 10-14 days (usually 11 days) after seeding and treating, the pans are observed and the results (% inhibition) are recorded.
(§4) Tables 7 and 7A below summarize the results of the pre-emergence herbicidal activity tests of compounds of this invention in weeds. The herbicidal rating shown in these tables is the percent inhibition of each plant species. The plant species usually regarded as weeds which are utilized in one set of tests, the data for which are shown in the tables, are identified by letter headings above the columns in accordance with the following legend: […]

Barnyardgrass [2] = test: Pre-emergence herbicide test; conditions: Echinochloa crus-galli, read-out: % plant inhibition (Bygr); for inhibition at 1120 g/ha: 1.12 kg/ha
Method: as §1, §2, §3, §4

Yellow nutsedge [3] = test: Pre-emergence herbicide test; conditions: Cyperus, read-out: % plant inhibition (Yens); for inhibition at 1120 g/ha: 1.12 kg/ha
Method: as §1, §2, §3, §4

Seedling johnsongrass [4] = test: Pre-emergence herbicide test; conditions: Sorghum halepense, read-out: % plant inhibition (Sejg); for inhibition at 1120 g/ha: 1.12 kg/ha
Method: as §1, §2, §3, §4

Downy Brome [5] = test: Pre-emergence herbicide test; conditions: Bromus tectorum, read-out: % plant inhibition (Dobr); for inhibition at 1120 g/ha: 1.12 kg/ha
Method: as §1, §2, §3, §4

Indian Mustard [6] = test: Pre-emergence herbicide test; conditions: Brassica juncea, read-out: % plant inhibition (Inmu); for inhibition at 1120 g/ha: 1.12 kg/ha
Method: as §1, §2, §3, §4

Morningglory [7] = test: Pre-emergence herbicide test; conditions: Ipomoea, read-out: % plant inhibition (Mogl); for inhibition at 1120 g/ha: 1.12 kg/ha
Method: as §1, §2, §3, §4

Velvetleaf [8] = test: Pre-emergence herbicide test; conditions: Abutilon theophrasti, read-out: % plant inhibition (Vele); for inhibition at 1120 g/ha: 1.12 kg/ha
Method: as §1, §2, §3, §4

Wild buckwheat [9] = test: Pre-emergence herbicide test; conditions: Fallopia convolvulus, read-out: % plant inhibition (Wibw); for inhibition at 1120 g/ha: 1.12 kg/ha
Method: as §1, §2, §3, §4

Annual bluegrass [10] = test: Pre-emergence herbicide test; conditions: read-out: % plant inhibition (Anbg); for inhibition at 1120 g/ha: 1.12 kg/ha
Method: as §1, §2, §3, §4

Cocklebur [11] = test: Post-emergence herbicide test; conditions: Xanthium strumarium, read-out: % plant inhibition (Cobu); for inhibition at 1120 g/ha: 1.12 kg/ha
Excerpt: (§5) Topsoil is placed in aluminum pans having holes in the bottom and compacted to a depth of 0.95 to 1.27 cm from the top of the pan. A predetermined number of seeds of each of several dicotyledonous and monocotyledonous annual plant species and/or vegetative propagules for the perennial plant species are placed on the soil and pressed into the soil surface. The seeds and/or vegetative propagules are covered with soil and leveled. The pans are then placed on a bench in the greenhouse and watered from below as needed. After the plants reach the desired age (two to three weeks), each pan, is removed individually to a spraying chamber and sprayed by means of an atomizer, operating at a spray pressure of 170.3 kPa (10 psig) at the application rates noted. In the spray solution is an amount of an emulsifying agent mixture to give a spray solution or suspension which contains about 0.4% by volume of the emulsifier. The spray solution or suspension contains a sufficient amount of the candidate chemical in order to give application rates of the active ingredient corresponding to those shown in Tables 8 and 8A, while applying a total amount of solution or suspension equivalent to 1870 L/Ha (200 gallons/acre). The pans were returned to the greenhouse and watered as before and the injury to the plants as compared to the control is observed at approximately 10-14 days (usually 11 days) and in some instances observed again at 24-28 days (usually 25 days) after spraying. The post-emergent herbicidal activity shown in these tables is the percent inhibition of each plant species.

Barnyardgrass [12] = test: Post-emergence herbicide test; conditions: Echinochloa crus-galli, read-out: % plant inhibition (Bygr); for inhibition at 1120 g/ha: 1.12 kg/ha
Excerpt: as §5

Yellow nutsedge [13] = test: Post-emergence herbicide test; conditions: Cyperus, read-out: % plant inhibition (Yens); for inhibition at 1120 g/ha: 1.12 kg/ha
Excerpt: as §5

Seedling johnsongrass [14] = test: Post-emergence herbicide test; conditions: Sorghum halepense, read-out: % plant inhibition (Sejg); for inhibition at 1120 g/ha: 1.12 kg/ha
Excerpt: as §5

Downy Brome [15] = test: Post-emergence herbicide test; conditions: Bromus tectorum, read-out: % plant inhibition (Dobr); for inhibition at 1120 g/ha: 1.12 kg/ha
Excerpt: as §5

Indian Mustard [16] = test: Post-emergence herbicide test; conditions: Brassica juncea, read-out: % plant inhibition (Inmu); for inhibition at 1120 g/ha: 1.12 kg/ha
Excerpt: as §5

Morningglory [17] = test: Post-emergence herbicide test; conditions: Ipomoea, read-out: % plant inhibition (Mogl); for inhibition at 1120 g/ha: 1.12 kg/ha
Excerpt: as §5

Velvetleaf [18] = test: Post-emergence herbicide test; conditions: Abutilon theophrasti, read-out: % plant inhibition (Vele); for inhibition at 1120 g/ha: 1.12 kg/ha
Excerpt: as §5

Wild buckwheat [19] = test: Post-emergence herbicide test; conditions: Fallopia convolvulus, read-out: % plant inhibition (Wibw); for inhibition at 1120 g/ha: 1.12 kg/ha
Excerpt: as §5

Annual bluegrass [20] = test: Post-emergence herbicide test; conditions: read-out: % plant inhibition (Anbg); for inhibition at 1120 g/ha: 1.12 kg/ha
Excerpt: as §5

| Compound | inhibition at 1120 g/ha (Cocklebur [1]) | inhibition at 1120 g/ha (Barnyardgrass [2]) | inhibition at 1120 g/ha (Yellow nutsedge [3]) | inhibition at 1120 g/ha (Seedling johnsongrass [4]) | inhibition at 1120 g/ha (Downy Brome [5]) | inhibition at 1120 g/ha (Indian Mustard [6]) | inhibition at 1120 g/ha (Morningglory [7]) | inhibition at 1120 g/ha (Velvetleaf [8]) | inhibition at 1120 g/ha (Wild buckwheat [9]) | inhibition at 1120 g/ha (Annual bluegrass [10]) | inhibition at 1120 g/ha (Cocklebur [11]) | inhibition at 1120 g/ha (Barnyardgrass [12]) | inhibition at 1120 g/ha (Yellow nutsedge [13]) | inhibition at 1120 g/ha (Seedling johnsongrass [14]) | inhibition at 1120 g/ha (Downy Brome [15]) | inhibition at 1120 g/ha (Indian Mustard [16]) | inhibition at 1120 g/ha (Morningglory [17]) | inhibition at 1120 g/ha (Velvetleaf [18]) | inhibition at 1120 g/ha (Wild buckwheat [19]) | inhibition at 1120 g/ha (Annual bluegrass [20]) | other results |
| --- | --- | --- | --- | --- | --- | --- | --- | --- | --- | --- | --- | --- | --- | --- | --- | --- | --- | --- | --- | --- | --- |
| CCOC(=O)CON=C(C)c1cc(-c2nn(C)c(C(F)(F)F)c2Cl)c(F)cc1Cl [Compound 104] | 20% | 10% | 0% | 80% | 80% | 80% | 80% | 90% | 70% | 20% | 70% | 50% | 20% | 80% | 40% | 40% | 100% | 100% | 100% | 30% |  |
| Cn1nc(-c2cc(CC(=O)O)c(Cl)cc2F)c(Cl)c1C(F)(F)F [Compound 111] |  |  |  |  |  |  |  |  |  |  |  |  |  |  |  |  |  |  |  |  | inhibition at 11210 g/ha (Cocklebur [1]; 11.21 kg/ha): 90%; inhibition at 11210 g/ha (Barnyardgrass [2]; 11.21 kg/ha): 40%; inhibition at 11210 g/ha (Yellow nutsedge [3]; 11.21 kg/ha): 60%; inhibition at 11210 g/ha (Seedling johnsongrass [4]; 11.21 kg/ha): 80%; inhibition at 11210 g/ha (Downy Brome [5]; 11.21 kg/ha): 70%; inhibition at 11210 g/ha (Indian Mustard [6]; 11.21 kg/ha): 100%; inhibition at 11210 g/ha (Morningglory [7]; 11.21 kg/ha): 100%; inhibition at 11210 g/ha (Velvetleaf [8]; 11.21 kg/ha): 100%; inhibition at 11210 g/ha (Wild buckwheat [9]; 11.21 kg/ha): 100%; inhibition at 11210 g/ha (Annual bluegrass [10]; 11.21 kg/ha): 80%; inhibition at 11210 g/ha (Cocklebur [11]; 11.21 kg/ha): 100%; inhibition at 11210 g/ha (Barnyardgrass [12]; 11.21 kg/ha): 60%; inhibition at 11210 g/ha (Yellow nutsedge [13]; 11.21 kg/ha): 30%; inhibition at 11210 g/ha (Seedling johnsongrass [14]; 11.21 kg/ha): 20%; inhibition at 11210 g/ha (Downy Brome [15]; 11.21 kg/ha): 20%; inhibition at 11210 g/ha (Indian Mustard [16]; 11.21 kg/ha): 80%; inhibition at 11210 g/ha (Morningglory [17]; 11.21 kg/ha): 100%; inhibition at 11210 g/ha (Velvetleaf [18]; 11.21 kg/ha): 100%; inhibition at 11210 g/ha (Wild buckwheat [19]; 11.21 kg/ha): 100%; inhibition at 11210 g/ha (Annual bluegrass [20]; 11.21 kg/ha): 0% |
| Cn1nc(-c2cc(CCl)c(Cl)cc2F)c(Cl)c1C(F)(F)F [Compound 109] | 30% | 90% | 0% | 80% | 20% | 90% | 70% | 90% | 100% | 20% | 40% | 30% | 10% | 20% | 0% | 40% | 60% | 100% | 90% | 40% |  |
| CC(O)c1cc(-c2nn(C)c(C(F)(F)F)c2Cl)c(F)cc1Cl (centres unmarked) [Compound 107] | 20% | 80% | 0% | 40% | 30% | 80% | 100% | 90% | 80% | 20% | 50% | 30% | 10% | 20% | 0% | 40% | 50% | 90% | 90% | 0% |  |
